The experiment deals with T1, Ha006a (Helicoverpa armigera, UniProt D5G3E0).
T1 sequence (D5G3E0 25-548): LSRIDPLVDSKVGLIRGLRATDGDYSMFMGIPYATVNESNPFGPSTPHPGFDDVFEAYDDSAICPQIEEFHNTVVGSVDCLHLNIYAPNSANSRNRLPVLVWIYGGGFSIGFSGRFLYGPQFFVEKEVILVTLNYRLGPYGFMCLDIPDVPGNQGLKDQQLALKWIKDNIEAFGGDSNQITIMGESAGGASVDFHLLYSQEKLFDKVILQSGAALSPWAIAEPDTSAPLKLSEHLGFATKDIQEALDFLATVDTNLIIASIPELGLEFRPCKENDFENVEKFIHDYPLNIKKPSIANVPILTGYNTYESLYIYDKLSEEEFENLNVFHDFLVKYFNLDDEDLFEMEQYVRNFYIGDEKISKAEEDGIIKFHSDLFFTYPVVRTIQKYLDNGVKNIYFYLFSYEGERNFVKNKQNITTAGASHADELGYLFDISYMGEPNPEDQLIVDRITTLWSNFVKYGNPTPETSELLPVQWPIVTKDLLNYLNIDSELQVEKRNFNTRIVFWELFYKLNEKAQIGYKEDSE
Kind of experiment: Differential scanning calorimetry of Ha006a-ligand complexes. It is filed as binding. The settings on record: DSC; for Tm1 (°C) ± SE: first thermal transition, 50 μM protein, non-two-state fit; for Tm2 (°C) ± SE: second thermal transition; for Tm3 (°C) ± SE: third thermal transition. A general note: DSC measures the heat that a sample takes up or gives off during a temperature scan.

From publication PMC11405510 (Scientific Reports, 2024) come the findings set out here.

In the case of `O=C(/C=C/C=C/c1ccc2c(c1)OCO2)N1CCCCC1` [Piperine], the “Tm1 (°C) ± SE” value was “Tm1 51.30 ± 0.32 °C”, the “Tm2 (°C) ± SE” value is “Tm2 65.47 ± 0.33 °C” and the “Tm3 (°C) ± SE” value is “Tm3 80.80 ± 0.36 °C”. Under “first transition (Tm1)”, the “ΔH (molar heat enthalpy)” value turned out to be 218000 kcal/mol, the “ΔHv (van't Hoff enthalpy)” value worked out at 43300 kcal/mol and the ΔHv/ΔH came out at 0.20. Moreover, where the note is “second transition (Tm2)”, the “ΔH (molar heat enthalpy)” value was found to be 209000 kcal/mol, the “ΔHv (van't Hoff enthalpy)” value is 40800 kcal/mol and the ΔHv/ΔH amounted to 0.20. Also, for the setting “third transition (Tm3)”, the “ΔH (molar heat enthalpy)” value was 44600 kcal/mol, the “ΔHv (van't Hoff enthalpy)” value came out at 40900 kcal/mol and the ΔHv/ΔH is listed as 0.92.

Regarding `O=P(Oc1ccccc1)(Oc1ccccc1)Oc1ccccc1` [Triphenyl phosphate, reference compound], the “Tm1 (°C) ± SE” value is “Tm1 51.32 ± 1.70 °C”, the “Tm2 (°C) ± SE” value was “Tm2 67.66 ± 0.26 °C” and the “Tm3 (°C) ± SE” value was “Tm3 78.21 ± 0.44 °C”. For the same compound, under “first transition (Tm1)”, the “ΔH (molar heat enthalpy)” value is 457000 kcal/mol, the “ΔHv (van't Hoff enthalpy)” value is 35900 kcal/mol and the ΔHv/ΔH is reported as 0.08. In addition, under “second transition (Tm2)”, the “ΔH (molar heat enthalpy)” value amounted to 1.31e+06 kcal/mol, the “ΔHv (van't Hoff enthalpy)” value amounted to 66800 kcal/mol and the ΔHv/ΔH was determined as 0.05. Under “third transition (Tm3)”, the “ΔH (molar heat enthalpy)” value turned out to be 472000 kcal/mol, the “ΔHv (van't Hoff enthalpy)” value turned out to be 89500 kcal/mol and the ΔHv/ΔH came to 0.19.

`COc1cc(OC)c2c(=O)cc(-c3ccc(OC)c(OC)c3)oc2c1` [3′,4′,5,7-Tetramethoxyflavone]: the “Tm1 (°C) ± SE” value was “Tm1 51.52 ± 0.25 °C”, the “Tm2 (°C) ± SE” value was “Tm2 79.01 ± 0.98 °C” and the “Tm3 (°C) ± SE” value was “Tm3 91.76 ± 0.43 °C”. Besides, where the note is “first transition (Tm1)”, the “ΔH (molar heat enthalpy)” value was found to be 584000 kcal/mol, the “ΔHv (van't Hoff enthalpy)” value turned out to be 34000 kcal/mol and the ΔHv/ΔH was found to be 0.06. Moreover, for the setting “second transition (Tm2)”, the “ΔH (molar heat enthalpy)” value is 957000 kcal/mol, the “ΔHv (van't Hoff enthalpy)” value was determined as 35300 kcal/mol and the ΔHv/ΔH was determined as 0.04. For the setting “third transition (Tm3)”, the “ΔH (molar heat enthalpy)” value came to 358000 kcal/mol, the “ΔHv (van't Hoff enthalpy)” value was determined as 58800 kcal/mol and the ΔHv/ΔH was 0.16.

On to `CN1CCc2cc3c(cc2C(=O)Cc2ccc4c(c2C1)OCO4)OCO3` [Protopine], for which the “Tm1 (°C) ± SE” value was “Tm1 49.93 ± 0.55 °C”, the “Tm2 (°C) ± SE” value is “Tm2 66.76 ± 0.33 °C” and the “Tm3 (°C) ± SE” value is “Tm3 86.29 ± 0.67 °C”. Also, where the note is “first transition (Tm1)”, the “ΔH (molar heat enthalpy)” value turned out to be 630000 kcal/mol, the “ΔHv (van't Hoff enthalpy)” value stood at 43200 kcal/mol and the ΔHv/ΔH is recorded as 0.07. Further, where the note is “second transition (Tm2)”, the “ΔH (molar heat enthalpy)” value amounted to 1.87e+06 kcal/mol, the “ΔHv (van't Hoff enthalpy)” value came to 31500 kcal/mol and the ΔHv/ΔH worked out at 0.02. In addition, under “third transition (Tm3)”, the “ΔH (molar heat enthalpy)” value was 783000 kcal/mol, the “ΔHv (van't Hoff enthalpy)” value was determined as 40100 kcal/mol and the ΔHv/ΔH was 0.05.
